Measurements: patent US20200317642A1, “AMINE-SUBSTITUTED HETEROCYCLIC COMPOUNDS AS EHMT2 INHIBITORS AND DERIVATIVES THEREOF” (Epizyme, Inc., priority 2017, published 2020)
Like-named read-outs stand apart in the source and are kept apart here.

Target: T1, EHMT1 (Homo sapiens, UniProt Q9H9B1)
T1 sequence (Q9H9B1 1-1298): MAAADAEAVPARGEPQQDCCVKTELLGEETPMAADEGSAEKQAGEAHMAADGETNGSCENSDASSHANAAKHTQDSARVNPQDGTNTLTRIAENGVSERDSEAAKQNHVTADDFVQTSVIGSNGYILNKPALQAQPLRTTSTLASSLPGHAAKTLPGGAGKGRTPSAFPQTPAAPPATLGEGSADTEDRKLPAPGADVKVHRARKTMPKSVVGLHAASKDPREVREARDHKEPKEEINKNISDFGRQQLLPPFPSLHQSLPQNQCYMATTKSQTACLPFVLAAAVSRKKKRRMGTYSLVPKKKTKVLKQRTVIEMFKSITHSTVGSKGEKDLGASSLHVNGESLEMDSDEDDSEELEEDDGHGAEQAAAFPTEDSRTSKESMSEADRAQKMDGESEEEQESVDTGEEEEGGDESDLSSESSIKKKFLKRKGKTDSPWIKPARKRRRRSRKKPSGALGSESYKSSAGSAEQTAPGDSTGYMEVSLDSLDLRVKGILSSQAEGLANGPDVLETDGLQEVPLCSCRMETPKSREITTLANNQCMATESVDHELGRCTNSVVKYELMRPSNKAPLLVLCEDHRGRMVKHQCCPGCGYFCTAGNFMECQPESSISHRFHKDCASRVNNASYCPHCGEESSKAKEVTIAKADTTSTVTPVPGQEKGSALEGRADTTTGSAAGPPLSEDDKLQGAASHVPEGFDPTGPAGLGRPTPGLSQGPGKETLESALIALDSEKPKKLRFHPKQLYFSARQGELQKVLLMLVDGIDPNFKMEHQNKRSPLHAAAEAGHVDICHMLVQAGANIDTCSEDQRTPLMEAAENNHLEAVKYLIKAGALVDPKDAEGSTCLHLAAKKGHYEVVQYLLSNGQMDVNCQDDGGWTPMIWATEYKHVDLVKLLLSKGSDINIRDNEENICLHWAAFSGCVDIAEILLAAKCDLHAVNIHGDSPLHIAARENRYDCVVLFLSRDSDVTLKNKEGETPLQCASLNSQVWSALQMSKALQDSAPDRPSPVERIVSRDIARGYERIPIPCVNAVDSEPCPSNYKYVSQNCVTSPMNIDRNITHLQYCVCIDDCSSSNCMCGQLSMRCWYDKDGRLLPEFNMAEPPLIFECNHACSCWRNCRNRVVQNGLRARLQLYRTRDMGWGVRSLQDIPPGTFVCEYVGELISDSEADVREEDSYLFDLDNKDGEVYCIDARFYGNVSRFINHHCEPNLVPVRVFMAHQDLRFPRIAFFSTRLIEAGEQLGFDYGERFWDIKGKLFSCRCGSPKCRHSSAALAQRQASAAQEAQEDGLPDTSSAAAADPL
Test: EHMT1 PEP enzyme assay
Format: biochemical

[1] = Table 3A, read-out: EHMT1 (IC50 μM)
[2] = Table 3, read-out: EHMT1 PEP (IC50 μM)

In the case of `CNCc1cn(-c2c(OC)ccc(Nc3nc(C)cc(NC)n3)c2F)nn1` [Compound A3, N2-(2-fluoro-4-methoxy-3-[4-[(methylamino)methyl]-1H-1,2,3-triazol-1-yl]phenyl)-N4,6-dimethylpyrimidine-2,4-diamine], the IC50 [1] is reported as < 0.01 µM.
`CNc1cc(C)nc(Nc2ccc(OC)c(CNC[C@@H](C)N3CCCC3)c2)n1` [Compound 42] was tested, and the IC50 [2] was 0.1 to 1 µM.
`CNc1cc(C)nc(Nc2ccc(OC)c(CNCCN3CC[C@@H](C)C3)c2)n1` [Compound 38] showed an IC50 [2] of 0.1 to 1 µM.
With `CNCc1cn(-c2cc3c(cc2Cl)C2(CCC2)C(N)=N3)nn1` [Compound A15, 5′-chloro-6′-(4-((methylamino)methyl)-1H-1,2,3-triazol-1-yl)spiro[cyclobutane-1,3′-indol]-2′-amine] the IC50 [1] was 0.01 to 0.1 µM.
In the case of `CNc1cc(C)nc(Nc2ccc(OC)c(CNC[C@H](C)N3CCCC3)c2)n1` [Compound 43], the IC50 [2] is reported as > 10 µM.
With `CNc1cc(C)nc(Nc2ccc(OC)c(C#CC[N+](C)(C)CCN)c2)n1` [Compound 45] the IC50 [2] was > 10 µM.
Compound `CNc1cc(C)nc(Nc2ccc(Cl)c(C(=O)NCC3COC3)c2)n1` [Compound 2, 2-chloro-5-[[4-methyl-6-(methylamino)pyrimidin-2-yl]amino]-N-(oxetan-3-ylmethyl)benzamide] has an IC50 [2] of 1 to 10 µM.
For `CNCc1cc(-c2c(OC)ccc(Nc3nc(C)cc(NC)n3)c2F)no1` [Compound A14, N2-(2-fluoro-4-methoxy-3-[5-[(methylamino)methyl]-1,2-oxazol-3-yl]phenyl)-N4,6-dimethylpyrimidine-2,4-diamine], the IC50 [1] was < 0.01 µM.
`CNc1cc(C)nc(Nc2ccc(Cl)c(C(=O)NCC3CCC3)c2)n1` [Compound 3] was tested, and the IC50 [2] was 0.1 to 1 µM.
In the case of `CNc1cc(C)nc(Nc2ccc(Cl)c(C(=O)Nc3ncco3)c2)n1` [Compound 6], the IC50 [2] is reported as 1 to 10 µM.
With `CNCc1cn(-c2cc(Nc3nc(C)cc(NC)n3)ccc2Cl)nn1` [Compound A1] the IC50 [1] was < 0.01 µM.
In the case of `CNCc1cnn(-c2c(OC)ccc(Nc3nc(NC)cc(C(C)C)n3)c2F)c1` [Compound A8, N^2-(2-fluoro-4-methoxy-3-[4-[(methylamino)methyl]-1H-pyrazol-1-yl]phenyl)-N^4-methyl-6-(propan-2-yl)pyrimidine-2,4-diamine], the IC50 [1] is reported as < 0.01 µM.
In the case of `CNc1cc(C)nc(Nc2ccc(Cl)c(-n3cc(CN)cn3)c2Cl)n1` [Compound A6], the IC50 [1] is reported as < 0.01 µM.
In the case of `CNC1=Nc2cc(-n3cc(CN4CCC4)cn3)c(Cl)cc2C12CCC2` [Compound A17, 6′-(4-(azetidin-1-ylmethyl)-1H-pyrazol-1-yl)-5′-chloro-N-methylspiro[cyclobutane-1,3′-indol]-2′-amine], the IC50 [1] is reported as 0.01 to 0.1 µM.
Work on `CNC1=Nc2cc(-c3cc4n(n3)CCNC4)c(Cl)cc2C12CCC2` [Compound A10, 5′-chloro-N-methyl-6′-(4,5,6,7-tetrahydropyrazolo[1,5-a]pyrazin-2-yl)spiro[cyclobutane-1,3′-indol]-2′-amine] yielded an IC50 [1] of 0.01 to 0.1 µM.
In the case of `CNC1=Nc2cc(-c3cc4n(n3)CCN(C)C4)c(Cl)cc2C12CCC2` [Compound A12, 5′-chloro-N-methyl-6′-(5-methyl-4,5,6,7-tetrahydropyrazolo[1,5-a]145yrazine-2-yl)spiro[cyclobutane-1,3′-indol]-2′-amine], the IC50 [1] is reported as 0.1 to 1 µM.
`CCCCNC(=O)c1cc(Nc2nc(C)cc(NC)n2)ccc1Cl` [Compound 9] gave an IC50 [2] of 0.1 to 1 µM.
`CNc1cc(C)nc(Nc2ccc(Cl)c(C(=O)Nc3cocn3)c2)n1` [Compound 14, 2-chloro-5-[[4-methyl-6-(methylamino)pyrimidin-2-yl]amino]-N-(1,3-oxazol-4-yl)benzamide] was tested, and the IC50 [2] was 1 to 10 µM.
In the case of `CNC1=Nc2cc(-n3cc([C@@H]4CCCN4)nn3)c(Cl)cc2C12CCC2` [Compound A2S, (S)-5′-chloro-N-methyl-6′-(4-(pyrrolidin-2-yl)-1H-1,2,3-triazol-1-yl)spiro[cyclobutane-1,3′-indol]-2′-amine], the IC50 [1] is reported as 0.01 to 0.1 µM.
Work on `CNc1cc(C)nc(Nc2ccc(Cl)c(C(=O)Nc3cscn3)c2)n1` [Compound 13] yielded an IC50 [2] of 0.1 to 1 µM.
With `CNc1cc(C)nc(Nc2ccc(C)c(C(=O)Nc3cc(C#N)ccn3)c2)n1` [Compound 30] the IC50 [2] was 1 to 10 µM.
Compound `CNc1cc(C)nc(Nc2ccc(OC)c(CN[C@H](C)CN3CCCC3)c2)n1` [Compound 48] has an IC50 [2] of 0.1 to 1 µM.
With `CNc1cc(C)nc(Nc2ccc(OC)c(CNCCN3CC(C)C3)c2)n1` [Compound 35] the IC50 [2] was > 10 µM.
`CNc1cc(C)nc(Nc2ccc(C)c(C(=O)Nc3c[nH]cn3)c2)n1` [Compound 37] gave an IC50 [2] of 1 to 10 µM.
For `CNc1cc(C)nc(Nc2ccc(C3CC3)c(CNCCN3CCCC3)c2)n1` [Compound 11, 2-N-[4-cyclopropyl-3-([[2-(pyrrolidin-1-yl)ethyl]amino]methyl)phenyl]-4-N,6-dimethylpyrimidine-2,4-diamine], the IC50 [2] was < 0.1 µM.
For `CNc1cc(C)nc(Nc2ccc(Cl)c(C(=O)Nc3cn(C)cn3)c2)n1` [Compound 15], the IC50 [2] was > 10 µM.
Work on `CNc1cc(C)nc(Nc2ccc(OC)c(CNCCN3CC[C@H](C)C3)c2)n1` [Compound 39] yielded an IC50 [2] of 0.1 to 1 µM.
In the case of `CNc1cc(C)nc(Nc2ccc(Cl)c(C(=O)NCC3CC3)c2)n1` [Compound 4], the IC50 [2] is reported as 1 to 10 µM.
`CNc1cc(C)nc(Nc2ccc(OC)c(OC[C@H](O)CN3CCCCC3)c2)n1` [Compound 40] was tested, and the IC50 [2] was > 10 µM.
In the case of `CNc1cc(C)nc(Nc2ccc(OC)c(OC[C@H](O)CN3CC4(CC4)C3)c2)n1` [Compound 41], the IC50 [2] is reported as > 10 µM.
With `CNc1cc(C)nc(Nc2ccc(OC)c(CNCCN3CCC[C@@H]3C)c2)n1` [Compound 32] the IC50 [2] was 0.1 to 1 µM.
For `CCNCc1cnn(-c2c(OC)ccc(Nc3nc(C)cc(NC)n3)c2F)c1` [Compound A7], the IC50 [1] was 0.01 to 0.1 µM.
Work on `CNc1cc(C)nc(Nc2ccc(OC)c(-n3cc4c(n3)CCNC4)c2F)n1` [Compound A19, N2-(2-fluoro-4-methoxy-3-(4,5,6,7-tetrahydro-2H-pyrazolo[4,3-c]pyridin-2-yl)phenyl)-N4,6-dimethylpyrimidine-2,4-diamine] yielded an IC50 [1] of 0.1 to 1 µM.
Compound `CNc1cc(C)nc(Nc2ccc(OC)c(-n3cc([C@@H]4CCCN4)nn3)c2F)n1` [Compound A4S] has an IC50 [1] of 0.01 to 0.1 µM.
With `CNC1=Nc2cc(-n3cc([C@H]4CCCN4)nn3)c(Cl)cc2C12CCC2` [Compound A2R, (R)-5′-chloro-N-methyl-6′-(4-(pyrrolidin-2-yl)-1H-1,2,3-triazol-1-yl)spiro[cyclobutane-1,3′-indol]-2′-amine] the IC50 [1] was < 0.01 µM.
`CNc1cc(C)nc(Nc2ccc(Cl)c(C(=O)Nc3ccccc3)c2)n1` [Compound 10] showed an IC50 [2] of 1 to 10 µM.
For `CNc1cc(C)nc(Nc2ccc(OC)c(C#CCNCCN(C)C)c2)n1` [Compound 49], the IC50 [2] was 0.1 to 1 µM.
With `CNCc1cn(-c2c(OC)cc3c(c2F)N=C(NC)C32CCC2)nn1` [Compound A21] the IC50 [1] was 0.01 to 0.1 µM.
For `CNCc1cn(-c2c(OC)cc3c(c2F)N=C(N)C32CCC2)nn1` [Compound A22], the IC50 [1] was 0.01 to 0.1 µM.
In the case of `CNC1=Nc2cc(-n3cc(C4CCCN4)nn3)c(Cl)cc2C12CCC2` (stereo not shown) [Compound A2], the IC50 [1] is reported as < 0.01 µM.
`CNCc1cn(-c2cc3c(cc2Cl)C2(CCC2)C(NC)=N3)nn1` [Compound A11, 5′-chloro-N-methyl-6′-(4-((methylamino)methyl)-1H-1,2,3-triazol-1-yl)spiro[cyclobutane-1,3′-indol]-2′-amine] was tested, and the IC50 [1] was < 0.01 µM.
With `CNc1cc(C)nc(Nc2ccc(OC)c(CNCCN3CCC[C@H]3C)c2)n1` [Compound 31] the IC50 [2] was < 0.1 µM.
Work on `CNc1cc(C)nc(Nc2ccc(Cl)c(C(=O)Nc3cccnn3)c2)n1` [Compound 5] yielded an IC50 [2] of 1 to 10 µM.
In the case of `CNc1cc(C)nc(Nc2ccc(OC)c(C#CCN3CCNCC3)c2)n1` [Compound 28, 2-N-[4-methoxy-3-[3-(piperazin-1-yl)prop-1-yn-1-yl]phenyl]-4-N,6-dimethylpyrimidine-2,4-diamine], the IC50 [2] is reported as < 0.1 µM.
Compound `CNc1cc(C)nc(Nc2ccc(OC)c(CN[C@@H](C)CN3CCCC3)c2)n1` [Compound 47] has an IC50 [2] of 0.1 to 1 µM.
`CNc1cc(C)nc(Nc2ccc(C)c(C(=O)Nc3cn(C4CC4)cn3)c2)n1` [Compound 36] was tested, and the IC50 [2] was > 10 µM.
`CNc1cc(C)nc(Nc2ccc(OC)c(-n3cc([C@H]4CCCN4)nn3)c2F)n1` [Compound A4R] was tested, and the IC50 [1] was < 0.01 µM.
Compound `CNc1cc(C)nc(Nc2ccc(C)c(C(=O)Nc3ncn(C)n3)c2)n1` [Compound 33] has an IC50 [2] of 1 to 10 µM.
In the case of `CNCc1cn(-c2c(Cl)ccc(Nc3nc(C)cc(NC)n3)c2Cl)nn1` [Compound A13, N2-(2,4-dichloro-3-(4-((methylamino)methyl)-1H-1,2,3-triazol-1-yl)phenyl)-N4,6-dimethylpyrimidine-2,4-diamine], the IC50 [1] is reported as < 0.01 µM.
